Experimental findings from publication PMC5653977 (EMBO Molecular Medicine, 2017) are described below.

Where a name gives a salt, the structure may show the parent alone.

The first assay relates to NRG1-ERBB4 signaling. As to the kind of experiment: Nrg1-ERBB4-PIK3R1 split TEV co-culture compound screen of the NIH Clinical Collection. The class given is cell-based, human.
Conditions: not given
Consider `CCCSc1ccc2nc(NC(=O)OC)[nH]c2c1` [Albendazole, reference compound], for which the Z-SCORE is given as -5.48.

The assay is the same for the next values; noted with them: NIH Clinical Collection NCC-003 raw data; compounds ranked by Z-score; 'flagged' given instead of a Z-score.
Turning to `CC[C@H](C)C(=O)O[C@H]1CCC=C2C=C[C@H](C)[C@H](CC[C@@H]3C[C@@H](O)CC(=O)O3)[C@H]21` [mevastatin], the Z-SCORE result was “flagged”.
Same read-out and setting: to `CC(C(=O)O)c1ccc(-c2ccccc2)c(F)c1` (stereo not drawn) [Flurbiprofen, reference compound] belongs -1.64.
Regarding `CC(C)[C@]12O[C@H]1[C@@H]1O[C@]13[C@]1(O[C@H]1C[C@H]1C4=C(CC[C@@]13C)C(=O)OC4)[C@@H]2O` [TRIPTOLIDE], the Z-SCORE result is recorded as “flagged”.
Compound `COc1ccccc1OCCNCC(O)COc1cccc2[nH]c3ccccc3c12` (stereo not drawn) [Carvedilol] displayed a Z-SCORE of -1.89.
With `COC(=O)C1=C(C)NC(C)=C(C(=O)OC(C)C)C1c1cccc2nonc12` (stereo not drawn) [ISRADIPINE], the Z-SCORE was -1.94.
`OCc1cccnc1` [3-PYRIDINEMETHANOL] gave a Z-SCORE of -1.1.
Regarding `Cc1nnc2n1-c1ccc(Cl)cc1C(c1ccccc1)=NC2` [Alprazolam], the Z-SCORE is -2.27.
As to `COc1ccc(CN2CCN(C(c3ccc(F)cc3)c3ccc(F)cc3)CC2)c(OC)c1OC.Cl.Cl` [LOMERIZINE DiHCl], the Z-SCORE is on record as -1.48.
In turn, `CCCCCCNC(=O)n1cc(F)c(=O)[nH]c1=O` [CARMOFUR] gave a Z-SCORE of -2.48.

Still in this assay, the particulars now being: compound screen of the NIH Clinical Collection, sheet raw data NCC-003; compounds ranked by Z-score.
In turn, `CC(NC(C)(C)C)C(=O)c1cccc(Cl)c1.Cl` (stereo not drawn) [AMFEBUTAMONE HCl] had a Z-SCORE of 0.
`CCCCC[C@H](O)/C=C/[C@H]1[C@H](O)CC(=O)[C@@H]1CCCCCCC(=O)O` [Prostaglandin E1] registered a Z-SCORE of 0.18.
`CCCc1nc(C(C)(C)O)c(C(=O)OCc2oc(=O)oc2C)n1Cc1ccc(-c2ccccc2-c2nnn[nH]2)cc1` [OLMESARTAN MEDOXOMIL] had a Z-SCORE of 0.84.
On the same count and under the same terms, next, `Cc1c(C(=O)NN2CCCCC2)nn(-c2ccc(Cl)cc2Cl)c1-c1ccc(I)cc1` [AM-251]: -0.56; `O=C(O)C(Cl)Cl` [DICHLOROACETIC ACID]: 1.9; `O=c1ncc(F)c[nH]1` [5-fluoro-2-pyrimidone]: -0.03.
On the same count and under the same terms, to `Cc1cccc(C)c1NC(=O)C(C)N` (stereo not drawn) [TOCAINIDE] belongs -0.41; to `Cc1cc2c(s1)Nc1ccccc1N=C2N1CCN(C)CC1` [OLANZAPINE], -0.89.
The compound `COc1ccc(CCN)cc1OC` [Homoveratrylamine] yielded a Z-SCORE of -0.37.
With `CC(C)(C#N)c1cc(Cn2cncn2)cc(C(C)(C)C#N)c1` [ANASTROZOLE], the Z-SCORE was -0.16.
Consider `Cc1ccc(O)c([C@H](CCN(C(C)C)C(C)C)c2ccccc2)c1` [TOLTERODINE TARTRATE], for which the Z-SCORE is -1.01.
In the case of `Cc1cccc(Nc2ccncc2S(=O)(=O)NC(=O)NC(C)C)c1` [TORASEMIDE], the Z-SCORE is 0.4.
Same read-out and setting: next, `CCOC(=O)c1ccc(OC(=O)CCCCCN=C(N)N)cc1.CS(=O)(=O)O` [Gabexate mesylate]: -0.47; `C#C[C@]1(O)CC[C@H]2[C@@H]3[C@H](C)CC4=C(CCC(=O)C4)[C@H]3CC[C@@]21C` [TIBOLONE]: 2.26.
Regarding `C[C@H](CCC(=O)O)[C@H]1CC[C@H]2[C@@H]3C(=O)C[C@@H]4CC(=O)CC[C@]4(C)[C@H]3CC(=O)[C@]12C` [DEHYDROCHOLIC ACID], the Z-SCORE is -0.51.
`CN(Cc1cnc2nc(N)nc(N)c2n1)c1ccc(C(=O)N[C@@H](CCC(=O)O)C(=O)O)cc1`: the Z-SCORE turned out to be 0.85.
Take `Cl.OC1CCCCC1N1CCC(c2ccccc2)CC1` (racemic) [(±)-Vesamicol hydrochloride]: the Z-SCORE is -0.04.
The same measure, in the same setting: to `C[C@@H](O)[C@H]1C(=O)N2C(C(=O)O)=C(S[C@@H]3CN[C@H](C(=O)N(C)C)C3)[C@H](C)[C@H]12` [MEROPENEM] belongs -0.25; to `N#CCc1ccccc1` [Benzeneacetonitrile], 0.03.
On the same count and under the same terms, next, `CN(C)[C@@H]1C(O)=C(C(=O)NCN2CCCC2)C(=O)[C@@]2(O)C(O)=C3C(=O)c4c(O)cccc4[C@@](C)(O)[C@H]3C[C@@H]12` [ROLITETRACYCLINE]: -0.5; `CCOc1cc(CC(=O)N[C@@H](CC(C)C)c2ccccc2N2CCCCC2)ccc1C(=O)O` [REPAGLINIDE]: 1.38; `CN(C)CCN(Cc1ccccc1)c1ccccn1` [TRIPELENNAMINE HYDROCHLORIDE]: 0.58.
The same measure, in the same setting: to `COC1=C(OC)C(=O)C(CCCCCCCCCCO)=C(C)C1=O` [IDEBENONE] belongs 2.79; to `CCOC(=O)[C@H](CCc1ccccc1)N[C@H]1CCc2ccccc2N(CC(=O)O)C1=O` [BENAZEPRIL HCl], 0.26; to `O=c1n(CCCN2CCN(c3cccc(Cl)c3)CC2)nc2ccccn12` [TRAZODONE HYDROCHLORIDE], 0.17.
As for `C[C@]12CC[C@H](O)CC1=CC[C@@H]1[C@@H]2CC[C@@]2(C)[C@H]1CC[C@]2(C)O` [METHYLANDROSTENEDIOL], the Z-SCORE was 0.32.
Take `CC(C)NCC(O)COc1ccc(COCCOC(C)C)cc1` (stereo not drawn) [BISOPROLOL FUMARATE]: the Z-SCORE came out at 0.59.
`CN(C)CC[C@@H](c1ccc(Cl)cc1)c1ccccn1` [DEXCHLORPHENIRAMINE MALEATE] showed a Z-SCORE of -0.67.
With `CN1C(C(=O)Nc2ccccn2)=C(O)c2ccccc2S1(=O)=O` [Piroxicam], the Z-SCORE is 0.27.

Staying with this assay, now noted: compounds at 10 μM, 24 h; PC12 split TEV assay cells co-cultured with Nrg1-expressing PC12 cells; analysed with cellHTS2.
For `NS(=O)(=O)c1cc2c(cc1C(F)(F)F)NCNS2(=O)=O` [HYDROFLUMETHIAZIDE, reference compound], the Z-SCORE is given as -0.47.
Still for that read-out and setting: to `CC(C(=O)O)c1ccc(-c2ccccc2)c(F)c1` (stereo not drawn) [Flurbiprofen, reference compound] belongs 0.7; to `O=c1[nH]cc(F)c(=O)[nH]1` [5-FLUOROURACIL, reference compound], -1.82.
In turn, `CCC(=O)O[C@]1(C(=O)CCl)[C@@H](C)C[C@H]2[C@@H]3CCC4=CC(=O)C=C[C@]4(C)[C@@]3(F)[C@@H](O)C[C@@]21C` [CLOBETASOL PROPIONATE, reference compound] registered a Z-SCORE of -2.64.
Same read-out and setting: to `Cc1ccccc1C(OCCN(C)C)c1ccccc1` (stereo not drawn) [Disipal, reference compound] belongs 0.42; to `COC(=O)C1=C(C)NC(C)=C(C(=O)OCCN(C)Cc2ccccc2)C1c1cccc([N+](=O)[O-])c1` (stereo not drawn) [Cardene, reference compound], -1.07.
`CNCC(O)c1ccc(O)c(O)c1.Cl` (racemic) [(+/-)-Epinephrine hydrochloride, reference compound] returned a Z-SCORE of -0.69.
Take `NS(=O)(=O)c1cc2c(cc1C(F)(F)F)NC(Cc1ccccc1)NS2(=O)=O` (stereo not drawn) [Bendrofluazide, reference compound]: the Z-SCORE is listed as 0.53.
As to `CCC1(c2ccccc2)C(=O)NCNC1=O` [Primidone, reference compound], the Z-SCORE came to 1.6.
Take `COc1cc([C@@H]2c3cc4c(cc3[C@H](O)[C@H]3COC(=O)[C@H]23)OCO4)cc(OC)c1OC` [Podofilox, reference compound]: the Z-SCORE entry is recorded as “flagged”.
`CN(C)[C@@H]1C(O)=C(C(N)=O)C(=O)[C@@]2(O)C(O)=C3C(=O)c4c(O)cccc4[C@@](C)(O)[C@H]3[C@H](O)[C@@H]12` [Oxytetracycline hydrochloride, reference compound] yielded a Z-SCORE of 0.67.
Regarding `CCCC(=O)Nc1ccc(OCC(O)CNC(C)C)c(C(C)=O)c1` (stereo not drawn) [ACEBUTOLOL HYDROCHLORIDE, reference compound], the Z-SCORE was determined as 0.4.
Compound `O=C1CN(/N=C/c2ccc(-c3ccc([N+](=O)[O-])cc3)o2)C(=O)[N-]1.[Na+]` [Dantrolene sodium salt, reference compound] gave a Z-SCORE of 0.78.
For the compound `CO/N=C(\C(=O)N[C@@H]1C(=O)N2C(C(=O)O)=C(COC(N)=O)CS[C@H]12)c1ccco1` [Cefuroxime, reference compound], the Z-SCORE is 0.08.
`CN(C)c1nc(N(C)C)nc(N(C)C)n1` [Altretamine, reference compound] displayed a Z-SCORE of -0.4.
In turn, `CCn1cc(C(=O)O)c(=O)c2ccc(C)nc21` [Nalidixic Acid, reference compound] yielded a Z-SCORE of 0.31.
The compound `CC(C)[N+](C)(CCOC(=O)C1c2ccccc2Oc2ccccc21)C(C)C` [Pro-Banthine, reference compound] returned a Z-SCORE of -0.77.
Take `C[C@H](CCC(=O)O)[C@H]1CC[C@H]2[C@@H]3[C@@H](O)C[C@@H]4C[C@H](O)CC[C@]4(C)[C@H]3CC[C@]12C` [URSODEOXYCHOLIC ACID, reference compound]: the Z-SCORE is -1.5.
Compound `CC(=O)OCC(=O)[C@@]12OC3(CCCC3)O[C@@H]1C[C@H]1[C@@H]3CCC4=CC(=O)C=C[C@]4(C)[C@@]3(F)[C@@H](O)C[C@@]12C` [AMCINONIDE, reference compound] had a Z-SCORE of -1.01.
With `O=C1CCC(N2C(=O)c3ccccc3C2=O)C(=O)N1` (stereo not drawn) [Thalidomide, reference compound], the Z-SCORE is -0.61.
Consider `COc1ccccc1OCC(O)COC(N)=O` (stereo not drawn) [Methocarbamol, reference compound], for which the Z-SCORE is listed as 0.65.
The same measure, in the same setting: to `O=C1c2c(O)ccc(O)c2C(=O)c2c(NCCNCCO)ccc(NCCNCCO)c21` [MITOXANTRONE, reference compound] belongs “flagged”; to `CC(C)NCC(O)COc1ccc(CC(N)=O)cc1` (stereo not drawn) [ATENOLOL, reference compound], 0.6.
`OCCN(CCO)c1nc(N2CCCCC2)c2nc(N(CCO)CCO)nc(N3CCCCC3)c2n1` [DIPYRIDAMOLE, reference compound] showed a Z-SCORE of -1.46.
Consider `Cc1ccc(S(=O)(=O)NC(=O)NN2CCCCCC2)cc1` [TOLAZAMIDE, reference compound], for which the Z-SCORE was found to be 0.3.
For the compound `CCCOc1ccc(C(=O)OCCN(CC)CC)cc1N` [Proparacaine hydrochloride, reference compound], the Z-SCORE amounted to 0.5.
Still for that read-out and setting: to `CC[C@H](C)C(=O)O[C@H]1C[C@@H](C)C=C2C=C[C@H](C)[C@H](CC[C@@H]3C[C@@H](O)CC(=O)O3)[C@H]21` [Lovastatin, reference compound] belongs “flagged”.
